Assays:
[1] = Multiplex bioanalytics profiling of plasma lipids in drug-dosed rats (Example 1); assay type: in vivo, rat; conditions: 7 days
Method: Multiplex bioanalytics profiling can elucidate novel pharmacological actions of drugs via measurement of hundreds of disease-relevant biomolecules in biofluids collected from drug-dosed animals. Romazarit was evaluated via a full multiplex bioanalytics profiling study.
In an initial experiment, two dose groups of six animals per group received either 5 or 50 mg/kg b.i.d., and a further group received vehicle only, as a control. A follow-up experiment was performed to explore dose-response and the selected doses were 15 and 50 mg/kg b.i.d., again plus control.
In both experiments, urine was collected from each animal by clean-catch after the final dose on day 7, and cerebrospinal fluid (CSF) and plasma were collected (terminal samples) on day 8. Aliquots of the CSF and plasma samples from each individual were submitted for LC-MS analyses of bioanalytes. Three different separation methods were run, with MS analyses in both positive and negative ion modes, to enable resolution of relative quantification of the bioanalytes. These methods included: • RP-I: LC-MS of polar and non-polar abundant lipids (e.g., individual cholesterol esters, triglycerides, diacylglycerols, phospholipids, lysophospholipids); • RP-II: LC-MS of lower abundance bioanalytes (e.g., eicosanoids & other lipid mediators, fatty acids, oxidized fatty acids, bile acids, conjugated bile acids); • PLR: LC-MS of polar compounds (e.g., catecholamines & serotonin pathway, amino acids, organic acids, sugars).

[2] = Oral glucose tolerance test (OGTT) in rats with diet-induced obesity (Example 5); assay type: in vivo, rat; conditions: for Glucose concentration maximum / Glucose concentration excursion (baseline to maximum): OGTT day 21, DIO rats; for Time to maximum (glucose concentration): OGTT day 21, dextrose 2 g/kg, DIO rats
Method: As part of the study described in Example 4, an oral glucose tolerance test (OGTT) was performed on day 21 of the dosing period, after a 2-4 hour fast. Dextrose (2 g/kg) was administered by oral gavage. Blood for glucose analysis was collected at 0, 15, 30, 60, 120 and 180 minutes after dextrose administration. At each time point, 0.25 ml whole blood was collected in EDTA, processed to plasma, and analyzed for blood glucose with a low-volume glucose kit.

[3] = Terminal fasting serum glucose and lipids in rats with diet-induced obesity (Example 6); assay type: in vivo, rat; conditions: DIO rats, vs vehicle control
Method: As part of the study described in Example 4, a terminal blood sample (0.5 ml whole blood in EDTA) was collected on day 24, after a 12-18 hour fast. Whole blood was processed to serum, and analyzed for glucose, total cholesterol, HDL cholesterol, free fatty acids and total triglycerides.

[4] = Metabolic parameters / indicators of insulin sensitivity in normal rats (Example 9); assay type: in vivo, rat
Source text: Male Sprague-Dawley rats were provided normal chow ad libitum, both before and during the study period. […] Six rats were assigned to each treatment group (8 to the vehicle control). The study terminated on the day following administration of the seventh dose (day 8), with terminal blood collected for plasma lipid and lipoprotein analyses including LC-MS-based determination of lipid profiles, total and free cholesterol analyses, and lipoprotein cholesterol determinations (VLDL, LDL and HDL).
Adiponectin is an insulin-sensitizing protein that is abundantly expressed in adipocytes and is secreted into the circulation (see review by Lara-Castro et al. (2007) cited above).

human PPARα = molecular target: T1, human PPARα (Homo sapiens, UniProt Q07869); assay: PPARRE-luciferase reporter in HepG2 cells transfected with human PPARα; assay type: cell-based; conditions: retinoic acid 200 nM, read-out: EC50 activation of human PPARα (hPPARα)
T1 construct: expressed in transfected cells; host or cells: HepG2
T1 sequence (Q07869 1-468): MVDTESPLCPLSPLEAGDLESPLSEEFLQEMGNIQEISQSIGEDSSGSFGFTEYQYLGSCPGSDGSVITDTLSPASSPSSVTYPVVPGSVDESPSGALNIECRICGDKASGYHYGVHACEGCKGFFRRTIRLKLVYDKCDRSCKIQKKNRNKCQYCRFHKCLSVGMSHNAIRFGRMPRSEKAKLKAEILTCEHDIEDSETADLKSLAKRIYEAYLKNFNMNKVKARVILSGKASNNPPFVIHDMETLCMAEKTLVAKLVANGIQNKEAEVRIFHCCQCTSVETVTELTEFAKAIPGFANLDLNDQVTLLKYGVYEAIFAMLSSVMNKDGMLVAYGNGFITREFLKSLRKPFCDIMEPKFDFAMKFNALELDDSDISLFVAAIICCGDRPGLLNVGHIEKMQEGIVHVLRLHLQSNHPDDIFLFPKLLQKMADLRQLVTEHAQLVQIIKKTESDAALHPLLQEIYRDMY
Method: For this study, a luciferase reporter plasmid containing 5 copies of a defined genetic regulatory PPARα response element (PPARRE) was utilized to detect romazarit-induced PPARRE activation in presence of a co-activator, retinoic acid. Specifically, HepG2 cells were transfected with expression vectors for either human or rat PPARα and the PPARRE-luciferase reporter plasmid. After 24 hours, the cells were trypsanized and subsequently seeded in 96-well clear-bottom plates at a density of 1.0×10^5 cells/ml.

[5] = 50 mg/kg b.i.d. p.o., second experiment

Q: For `Cc1nc(-c2ccc(Cl)cc2)oc1COC(C)(C)C(=O)O` [romazarit, 2-[[2-(4-chlorophenyl)-4-methyl-5-oxazolyl]methoxy]-2-methylpropanoic acid], which plasma triglycerides ([1]; 5 mg/kg b.i.d. p.o., initial experiment) is on record?
A: also apparent

Q: What about the plasma triglycerides ([1]; 15 mg/kg b.i.d. p.o., second experiment) of the same compound?
A: lowered plasma triglycerides to a degree that was intermediate

Q: What about the plasma triglycerides ([1]; 50 mg/kg b.i.d. p.o., initial experiment) of the same compound?
A: highly pronounced

Q: And the plasma cholesterol esters [1, 5]?
A: generally similar to those seen with the same dose in the initial experiment

Q: And the plasma triglycerides [1, 5]?
A: generally similar to those seen with the same dose in the initial experiment

Q: And the plasma cholesterol esters ([1]; 5 and 50 mg/kg b.i.d. p.o., initial experiment)?
A: increased

Q: And the Glucose concentration maximum ([2]; 15 mg/kg)?
A: 230.1 mg/dL

Q: What about the “Glucose concentration excursion (baseline to maximum)” value ([2]; 50 mg/kg) of the same compound?
A: 61.1 mg/dL

Q: What about the Glucose concentration maximum ([2]; 50 mg/kg) of the same compound?
A: 203.3 mg/dL

Q: What about the “Glucose concentration excursion (baseline to maximum)” value ([2]; 100 mg/kg) of the same compound?
A: 42.7 mg/dL

Q: What about the Glucose concentration maximum ([2]; 100 mg/kg) of the same compound?
A: 185.1 mg/dL

Q: And the “Time to maximum (glucose concentration)” value ([2]; 15 mg/kg)?
A: 15 min

Q: What about the “Time to maximum (glucose concentration)” value ([2]; 50 mg/kg) of the same compound?
A: 15 min

Q: And the “Time to maximum (glucose concentration)” value ([2]; 100 mg/kg)?
A: 60 min

Q: And the “terminal (total) cholesterol levels” value ([3]; day 24, 15 mg/kg once daily)?
A: not statistically significant

Q: And the “terminal HDL levels” value ([3]; day 24, 15 mg/kg once daily)?
A: not statistically significant

Q: And the “terminal fasting levels of triglycerides” value ([3]; day 24, 15 mg/kg once daily)?
A: significant reduction

Q: What about the “terminal fasting serum glucose” value ([3]; day 24, 15 mg/kg once daily) of the same compound?
A: significantly reduced

Q: And the “terminal levels of free fatty acids” value ([3]; day 24, 15 mg/kg once daily)?
A: did not, at any of the tested doses, affect

Q: What about the “terminal (total) cholesterol levels” value ([3]; day 24, 50 mg/kg once daily) of the same compound?
A: significantly reduced

Q: What about the “terminal HDL levels” value ([3]; day 24, 50 mg/kg once daily) of the same compound?
A: significantly reduced

Q: And the “terminal fasting levels of triglycerides” value ([3]; day 24, 50 mg/kg once daily)?
A: significant reduction

Q: And the “terminal fasting serum glucose” value ([3]; day 24, 50 mg/kg once daily)?
A: significantly reduced

Q: What about the “terminal levels of free fatty acids” value ([3]; day 24, 50 mg/kg once daily) of the same compound?
A: did not, at any of the tested doses, affect

Q: And the “terminal (total) cholesterol levels” value ([3]; day 24, 100 mg/kg once daily)?
A: significantly reduced

Q: And the “terminal HDL levels” value ([3]; day 24, 100 mg/kg once daily)?
A: significantly reduced

Q: What about the “terminal fasting levels of triglycerides” value ([3]; day 24, 100 mg/kg once daily) of the same compound?
A: did not achieve statistical significance

Q: What about the “terminal fasting serum glucose” value ([3]; day 24, 100 mg/kg once daily) of the same compound?
A: significantly reduced

Q: What about the “terminal levels of free fatty acids” value ([3]; day 24, 100 mg/kg once daily) of the same compound?
A: did not, at any of the tested doses, affect

Q: What about the glucose in plasma ([4]; once daily p.o. 7 days) of the same compound?
A: appeared to lower

Q: What about the insulin in plasma ([4]; once daily p.o. 7 days) of the same compound?
A: appeared to lower

Q: And the plasma glucagon ([4]; once daily p.o. 7 days)?
A: lowered

Q: And the plasma adiponectin ([4]; once daily p.o. 7 days, 10, 50 and 100 mg/kg)?
A: dose-dependently increased

Q: What about the EC50 (human PPARα) of the same compound?
A: ~200 µM
